Results published in patent US20250269039A1, “THERAPEUTIC-OLIGONUCLEOTIDES ACTIVATED BY NUCLEASES” (priority 2020, published 2025).

Legend:
[1] = test system: Pancreatic cancer cells (ASPC-1); experiment: Anti-cancer drug susceptibility testing, pancreatic cancer cells, 72 h; format: cell-based; settings: 72 h cultures; Gemcitabine alone, TOUCAN 7mGe spiked with MN; FIG. 13
Method: (§1) Anti-cancer drug susceptibility testing for TOUCAN 7mGe. Gemcitabine and equivalent 7mGe solutions were prepared as explained before. Then, 7mGe was pre-exposed to 10 μl of 10 U MN for 1 hour at 37° C. (7mGe+MN). 100 μl of both drugs (Gemcitabine and 7mGe+MN) were added to the related wells and serially diluted using PBS+/+making the final concentrations between 100-2 μg/μl. Breast cancer cells (MDAMB231) and Pancreatic cancer cells (ASPC-1) were prepared as 10.000 cells/ml and 100 μl cell suspensions were added to each well. The plate was incubated at 37° C. for 72 hours. At 48th hour of incubation, 100 μl CyQUANT® Direct Cell Proliferation Assay kit was added to each well. Cell counts and images were taken at the end of 72 hours incubation period using Cytation 1 Cell Imaging Multi-Mode Reader.

E. coli ATCC 25922 = experiment: Broth microdilution MIC and growth inhibition (control bacteria); format: cell-based, Escherichia coli
From the text: (§2) Bacteria strains. S. aureus NCTC 12493 (MRSA), S. aureus ATCC 29213 (MSSA), S. aureus ATCC 43300 (MRSA), S. aureus ATCC 1707 (MRSA), S. aureus ATCC 1717 (MRSA), S. aureus ATCC 1747 (MRSA), S. aureus ATCC 1761 (MRSA), S. aureus ATCC 1766 (MRSA), S. aureus ATCC 1768 (MRSA), S. epidermidis ATCC 35984, E. coli ATCC 25922, K. pneumoniae ATCC 13883, P. mirabilis ATCC 25933, S. enterica ATCC 14028 and P. aeruginosa ATCC 10145 strains were used in this study. Bacteria were initially inoculated onto tryptone soy agar with 5% defibrinated sheep blood (Thermo Fisher Scientific, Inc., Waltham, MA, USA) and incubated at 37° C. for 24 hours. Then, single colonies of each strain were transferred to tryptone soy broth (Thermo Fisher Scientific) for the nuclease activity assay or antimicrobial susceptibility testing, respectively.
(§3) Antimicrobial susceptibility testing. Minimal inhibitory concentrations (MIC) of all nucleoside analogues and TOUCANs against each bacteria strain were determined using broth microdilution method. A single colony obtained from overnight culture on tryptone soy agar with 5% defibrinated sheep blood was inoculated in cation-adjusted Mueller Hinton Broth and adjusted to 10^6 CFU/mL. TOUCANs were prepared in PBS+/+ (treatment) and serial dilutions were made in 96-well polystyrene round bottom microwell plates with 50 μL final volume for each concentration. PBS+/+ was used as untreated control. Next, 50 μL bacteria solutions were added to each well to a final bacteria concentration of 5×10^5 CFU/mL. Plates were incubated at 37° C. in Cytation 1 Cell Imaging Multimode Reader. Growth curves were obtained by measuring optical densities at 600 nm every 10 minutes for 18 hours using Cytation 1 Cell Imaging Multimode Reader. In addition, visual inspection of the plates was carried out after 18 hours and photographs were taken. MICs were defined as the lowest drug concentration in the microwell at which bacterial growth was not visible at the end of the incubation period. Besides MIC determination, specificity of TOUCAN 7mGe was also shown with subcultures on chromogenic media. For this purpose, 5 μL of different concentrations of each strain were inoculated onto CHROM agar Orientation Media (Becton Dickinson) and the bacterial growth of each bacteria strain tested was observed by naked eye after incubation at 37° C. for 24 hours. Finally, photographs of the chromogenic media were taken.

S. aureus [2] = experiment: Growth inhibition curves / MICs in S. aureus cultures (strain not named or summary over strains); format: cell-based, Staphylococcus aureus
Method: as §3

[3] = test system: Breast cancer cells (MDAMB231); experiment: Anti-cancer drug susceptibility testing, breast cancer cells, 72 h; format: cell-based; settings: 72 h of treatment; Gemcitabine alone, TOUCAN 7mGe spiked with MN; FIG. 14
Method: as §1

[4] = test system: S. epidermidis ATCC 35984; experiment: Broth microdilution MIC and growth inhibition (control bacteria); format: cell-based, Staphylococcus epidermidis
From the text: as §2, §3

[5] = test system: other pathogenic bacteria; experiment: Specificity study by visual inspection on chromogenic media, non-targeted control bacteria; format: cell-based; settings: all concentrations tested, FIG. 1e
Method: as §3, with “For this purpose, 5 μL of different concentrations of each strain were inoculated onto CHROM agar Orientation Media (Becton Dickinson) and the bacterial growth of each bacteria strain tested was observed by naked eye after incubation at 37° C. for 24 hours. Finally, photographs of the chromogenic media were taken.” left out

S. enterica ATCC 14028 = experiment: Broth microdilution MIC and growth inhibition (control bacteria); format: cell-based
From the text: as §2, §3

P. aeruginosa ATCC 10145 = experiment: as above; format: cell-based
From the text: as §2, §3

K. pneumoniae ATCC 13883 = experiment: as above; format: cell-based
From the text: as §2, §3

S. aureus [6] = experiment: Specificity study by visual inspection on chromogenic media, targeted bacteria; format: cell-based, Staphylococcus aureus; settings: FIG. 1e
Method: as §3, with “For this purpose, 5 μL of different concentrations of each strain were inoculated onto CHROM agar Orientation Media (Becton Dickinson) and the bacterial growth of each bacteria strain tested was observed by naked eye after incubation at 37° C. for 24 hours. Finally, photographs of the chromogenic media were taken.” left out

P. mirabilis ATCC 25933 = experiment: Broth microdilution MIC and growth inhibition (control bacteria); format: cell-based, Proteus mirabilis
From the text: as §2, §3

[7] = test system: S. aureus NCTC 12493 (MRSA); experiment: Broth microdilution MIC and growth inhibition; format: cell-based, Staphylococcus aureus; settings: for growth inhibition, dose response: NCTC-12493 (MRSA), FIG. 5a-b
From the text: as §2, §3

[8] = test system: S. aureus ATCC 1768 (MRSA); experiment: Broth microdilution MIC and growth inhibition; format: cell-based, Staphylococcus aureus
From the text: as §2, §3

[9] = test system: S. aureus ATCC 1766 (MRSA); experiment: Broth microdilution MIC and growth inhibition; format: cell-based, Staphylococcus aureus; settings: S. aureus ATCC 1766 (MRSA)
From the text: as §2, §3

[10] = test system: S. aureus ATCC 1747 (MRSA); experiment: Broth microdilution MIC and growth inhibition; format: cell-based, Staphylococcus aureus
From the text: as §2, §3

[11] = test system: S. aureus ATCC 29213 (MSSA); experiment: Broth microdilution MIC and growth inhibition; format: cell-based, Staphylococcus aureus; settings: S. aureus ATCC 29213 (MSSA)
From the text: as §2, §3

[12] = test system: S. aureus ATCC 1707 (MRSA); experiment: Broth microdilution MIC and growth inhibition; format: cell-based, Staphylococcus aureus
From the text: as §2, §3

[13] = test system: S. aureus ATCC 1717 (MRSA); experiment: Broth microdilution MIC and growth inhibition; format: cell-based, Staphylococcus aureus
From the text: as §2, §3

[14] = test system: S. aureus ATCC 1761 (MRSA); experiment: Broth microdilution MIC and growth inhibition; format: cell-based, Staphylococcus aureus
From the text: as §2, §3

[15] = test system: S. aureus ATCC 43300 (MRSA); experiment: Broth microdilution MIC and growth inhibition; format: cell-based, Staphylococcus aureus
From the text: as §2, §3

mU-mU-mU-mU-T-T-Ge [TOUCAN 7mGe] was tested. Which “killing of pancreatic cancer cells (viability)” value [1] did it give?
The value was “efficient in killing”.

What about the MIC (E. coli ATCC 25922; 18 h, TOUCAN as NA equivalent) of the same substance?
The MIC was >40 µg/mL.

And the “TOUCAN % Growth inhibition” value (E. coli ATCC 25922; mean ± SD, n = 3)?
The value was 0 ± 0.00%.

What about the growth inhibition (S. aureus [2]; S. aureus (target), FIG. 1d) of the same substance?
Its growth inhibition is “high growth inhibition”.

And the bacterial growth inhibition (S. aureus [2]; S. aureus cultures, optical density (OD) over 18 h, FIG. 1b)?
The bacterial growth inhibition was 96%.

And the “inhibition of bacterial growth (therapeutic efficacy)” value (S. aureus [2]; combinations of the R-S-D moieties, FIG. 1c)?
The value was “more than 99%”.

What about the “therapeutic effect in breast cancer cells (viability)” value [3] of the same substance?
The value was “slightly higher”.

And the “associated toxicity to non-targeted bacteria” value ([4]; S. epidermidis (control), FIG. 1d)?
The value was “minimal associated toxicity”.

What about the MIC ([4]; S. epidermidis ATCC 35984, 18 h, TOUCAN as NA equivalent) of the same substance?
Its MIC is >40 µg/mL.

What about the “TOUCAN % Growth inhibition” value ([4]; S. epidermidis ATCC 35984, mean ± SD, n = 3) of the same substance?
Its value is 3.6 ± 2.0%.

And the “growth inhibition, dose response” value ([4]; S. epidermidis, all concentrations tested, FIG. 5)?
The value was “No growth inhibition”.

And the “viability on chromogenic media” value [5]?
Its value is “remained viable”.

And the MIC (S. enterica ATCC 14028; 18 h, TOUCAN as NA equivalent)?
Its MIC is >40 µg/mL.

And the “TOUCAN % Growth inhibition” value (S. enterica ATCC 14028; mean ± SD, n = 3)?
Its value is 12.5 ± 5.7%.

What about the MIC (P. aeruginosa ATCC 10145; 18 h, TOUCAN as NA equivalent) of the same substance?
The MIC was >40 µg/mL.

And the “TOUCAN % Growth inhibition” value (P. aeruginosa ATCC 10145; mean ± SD, n = 3)?
Its value is 0 ± 0.00%.

What about the MIC (K. pneumoniae ATCC 13883; 18 h, TOUCAN as NA equivalent) of the same substance?
Its MIC is >40 µg/mL.

And the “TOUCAN % Growth inhibition” value (K. pneumoniae ATCC 13883; mean ± SD, n = 3)?
The value was 4.9 ± 3.1%.

What about the “inhibition on chromogenic media” value (S. aureus [6]; 5 μg/mL) of the same substance?
The value was “partially inhibited”.

What about the “inhibition on chromogenic media” value (S. aureus [6]; 10 and 20 μg/mL) of the same substance?
The value was “completely inhibited”.

And the MIC (P. mirabilis ATCC 25933; 18 h, TOUCAN as NA equivalent)?
Its MIC is >40 µg/mL.

And the “TOUCAN % Growth inhibition” value (P. mirabilis ATCC 25933; mean ± SD, n = 3)?
Its value is 8.3 ± 0.6%.

And the “growth inhibition, dose response” value ([7]; 1.25 and 2.5 g/mL)?
Its value is “partial effect”.

And the “growth inhibition, dose response” value ([7]; concentrations from 5 to 40 μg/mL)?
Its value is 96%.

What about the “TOUCAN MIC/NA MIC TOUCAN Efficacy Ratio (TER)” value ([7]; S. aureus NCTC 12493 (MRSA)) of the same substance?
Its value is 1250.

What about the MIC ([7]; S. aureus NCTC 12493 (MRSA), 18 h, TOUCAN as NA equivalent) of the same substance?
Its MIC is 5 µg/mL.

What about the “TOUCAN % Growth inhibition” value ([7]; S. aureus NCTC 12493 (MRSA), mean ± SD, n = 3) of the same substance?
Its value is 85.3%.

And the MIC ([8]; 18 h, TOUCAN as NA equivalent)?
The MIC was >40 µg/mL.

What about the “TOUCAN % Growth inhibition” value ([8]; mean ± SD, n = 3) of the same substance?
Its value is 61.9 ± 1.1%.

What about the MIC ([9]; 18 h, TOUCAN as NA equivalent) of the same substance?
The MIC was >40 µg/mL.

And the “TOUCAN % Growth inhibition” value ([9]; mean ± SD, n = 3)?
Its value is 86.2 ± 0.9%.

What about the MIC ([10]; 18 h, TOUCAN as NA equivalent) of the same substance?
Its MIC is >40 µg/mL.

And the “TOUCAN % Growth inhibition” value ([10]; mean ± SD, n = 3)?
Its value is 44.9 ± 0.7%.

What about the MIC ([11]; 18 h, TOUCAN as NA equivalent) of the same substance?
The MIC was >40 µg/mL.

And the “TOUCAN % Growth inhibition” value ([11]; mean ± SD, n = 3)?
Its value is 52.5 ± 1.1%.

What about the MIC ([12]; 18 h, TOUCAN as NA equivalent) of the same substance?
The MIC was >40 µg/mL.

And the “TOUCAN % Growth inhibition” value ([12]; mean ± SD, n = 3)?
Its value is 61.5 ± 0.5%.

What about the MIC ([13]; 18 h, TOUCAN as NA equivalent) of the same substance?
The MIC was >40 µg/mL.

What about the “TOUCAN % Growth inhibition” value ([13]; mean ± SD, n = 3) of the same substance?
Its value is 72.9 ± 1.2%.

What about the “TOUCAN MIC/NA MIC TOUCAN Efficacy Ratio (TER)” value [14] of the same substance?
Its value is 2500.

What about the MIC ([14]; 18 h, TOUCAN as NA equivalent) of the same substance?
The MIC was 40 µg/mL.

What about the “TOUCAN % Growth inhibition” value ([14]; mean ± SD, n = 3) of the same substance?
The value was 90.1%.

And the MIC ([15]; 18 h, TOUCAN as NA equivalent)?
The MIC was >40 µg/mL.

And the “TOUCAN % Growth inhibition” value ([15]; mean ± SD, n = 3)?
Its value is 66.6 ± 1.6%.
